Experimental data published in PMC11790763, “A Peptide Motif Covering Splice Site B in Neuroligin-1 Binds to Aβ and Acts as a Neprilysin Inhibitor” (Molecular Neurobiology, 2024).
Bridges are numbered along the chain shown (N, C = ends). Roman numbers before positions name the chains, in order. Where no end group is shown, it is not given here.

B1: NL1: recombinant rat neuroligin-1, soluble ectodomain (R&D systems) (protein, UniProt Q62765 46-697, looked up)
extracellular domain: QKLDDVDPLVTTNFGKIRGIKKELNNEILGPVIQFLGVPYAAPPTGEHRFQPPEPPSPWSDIRNATQFAPVCPQNIIDGRLPEVMLPVWFTNNLDVVSSYVQDQSEDCLYLNIYVPTEDVKRISKECARKPGKKICRKGDIRDSGGPKPVMVYIHGGSYMEGTGNLYDGSVLASYGNVIVITVNYRLGVLGFLSTGDQAAKGNYGLLDLIQALRWTSENIGFFGGDPLRITVFGSGAGGSCVNLLTLSHYSEGNRWSNSTKGLFQRAIAQSGTALSSWAVSFQPAKYARILATKVGCNVSDTVELVECLQKKPYKELVDQDVQPARYHIAFGPVIDGDVIPDDPQILMEQGEFLNYDIMLGVNQGEGLKFVENIVDSDDGVSASDFDFAVSNFVDNLYGYPEGKDVLRETIKFMYTDWADRHNPETRRKTLLALFTDHQWVAPAVATADLHSNFGSPTYFYAFYHHCQTDQVPAWADAAHGDEVPYVLGIPMIGPTELFPCNFSKNDVMLSAVVMTYWTNFAKTGDPNQPVPQDTKFIHTKPNRFEEVAWTRYSQKDQLYLHIGLKPRVKEHYRANKVNLWLELVPHLHNLNDISQYTSTTTKVPSTDITLRPTRKNSTPVTSAFPTAKQDDPKQQPSPFSVDQRDYSTELS
modifications: extracellular domain

Legend:
Aβ40-1 = test: Competitive ELISA with reversed Aβ (Aβ40-1) as negative control; assay type: binding; settings: competitive ELISA with biotinylated reverse Aβ40-1; signal only at the highest neurolide concentration; p < 0.0001 versus Aβ1-40
Procedure: NL1 and NL1-derived peptide binding to Aβ was measured by competitive ELISA using the shorter Aβ1-40 peptide with a slower polymerization constant, optimized for this binding assay. Recombinant NL1 (3.125 nM) was immobilized on a poly-sorb 96-well plate (NUNC, Roskilde, Denmark) using sodium bicarbonate buffer (pH 9.6), and left overnight at 4 °C, followed by washing with PBST buffer (PBS supplemented with 0.1% [vol/vol] Tween-20, pH 7.4). In separate tubes, biotinylated Aβ1-40, at final concentration 400 nM, was premixed with serially diluted NL1 or NL1-derived peptides for 30 min. A reversed version of Aβ (Aβ40-1) was used as the respective negative control (Supplementary Fig. 1). After preincubation, the samples were centrifuged at 20,000 × g for 10 min at 4 °C and 100 μl of the mixtures were transferred in triplicates onto the precoated ELISA plate. Plates were incubated at room temperature for 4 h, followed by washing and incubation with streptavidin-HRP conjugate (1:1000, 1 h; Dako, Glostrup, Denmark). The signal was developed with TMB ONE (KEM-EN-TEC, Denmark), and the reaction was terminated with 0.2 M H2SO4. Absorbance was measured at 450 nm on a Wallac VICTOR2 1420 Multilabel Counter (PerkinElmer, Hvidovre, Denmark). […]

WT and 5XFAD mice [1] = test: Novel object recognition task; assay type: in vivo, mouse; settings: 10 mg/kg s.c. three times a week for 10 weeks
Procedure: (§1) At the age of 2 months, 5XFAD and WT mice were injected subcutaneously (s.c.) with either neurolide (10 mg/kg) or saline in a volume of 0.1 ml/10 g of body weight three times a week for 10 weeks.
The novel object recognition assay is based on the innate tendency of animals to differentially explore novel and familiar objects and consists of habituation, training, short-term (2 h) and long-term (24 h) memory retention sessions. On day 1, the mice were habituated to the test area (a 35 × 35 cm box with a floor divided into 16 squares). Each mouse was placed into a box without objects and allowed to explore it freely for 5 min. During a training session, a mouse was placed in the test box and exposed to 2 identical nontransparent glass objects placed in the box. During 5 min, locomotion and exploration time for both objects were recorded. Exploration of an object was defined as pointing the nose to the object at a distance of ≤ 1 cm and/or touching it with the nose. Climbing or sitting on the object was not considered exploration. Short-term memory retention was evaluated 2 h after the training session, whereas long-term memory retention was evaluated 24 h after the training session. During both sessions, mice were exposed to the familiar object and to a novel object. The exploration time for the familiar and novel objects and locomotion were recorded for 5 min. Mice failing to explore one or both objects in the training trial were excluded from the statistical analysis.

[2] = cited from earlier work
WT and 5XFAD mice [3] = test: Y-maze test; assay type: in vivo, mouse; settings: 10 mg/kg s.c. three times a week for 10 weeks
Procedure: as §1
To estimate the effect of neurolide on spatial working memory, the Y-maze test was used, wherein the recording of alternation behavior was assessed. Mice were placed in the middle of the three-arm maze, joined with equal angle between all arms, and allowed to explore the maze freely for 8 min. The sequence and total number of entries into each arm were assessed in video recordings. Arm entry was considered completed when the hind paws of the mouse had been placed in the arm. An actual alternation was defined as entries into all three arms on consecutive choices. Percentage alternation was calculated as the ratio of actual to possible alternation (defined as total number of arm entries − 2) × 100, as follows: %Alternation=Number of alternations/Total arm entries-2×100.

5XFAD and WT mice = test: Aβ plaque load, Thioflavin-S staining of brain sections; assay type: in vivo, mouse
Procedure: as §1
(§2) After 10 weeks of treatment, mice were transcardially perfused with 0.1 M PBS, pH 7.4 under deep pentobarbital anesthesia (intraperitoneal, 200 mg/kg). The left brain hemispheres were postfixed in 4% paraformaldehyde in PBS. The brain hemispheres were further dehydrated in ethanol, cleared, embedded in paraffin blocks and serially sectioned into 7-μm coronal sections through the entire brain hemisphere. Parallel series of sections were collected, consisting of 12 equally spaced Sects. (400 μm apart). One of the series was stained with 1% Thioflavin-S for histological evaluation of Aβ plaque formation. Another series was used for immunohistochemical staining of GFAP + astrocytes as described previously. Extracellular Aβ plaque load was assessed in cortex, hippocampus, striatum, thalamus, and hypothalamus. GFAP-positive astrocytes were assessed in motor cortex. Serial super images of whole-brain sections were acquired using an Olympus BX-51 microscope equipped with the Visiopharm Integrator System software (Visiopharm) and analyzed using the ImageJ software package. The pictures were converted to 8-bit images, and the area of interest was marked. The intensity threshold was fixed to fit Thioflavin-S or GFAP signal. The area, covered by Thioflavin-S or GFAP staining, was measured in selected regions.

5XFAD mice = test: GFAP immunoreactivity (astrogliosis) in cortex; assay type: in vivo, mouse; settings: 10 mg/kg s.c. three times a week for 10 weeks, neurolide n = 11 versus vehicle n = 13, p < 0.01
Procedure: as §1
as §2, with “The pictures were converted to 8-bit images, and the area of interest was marked. The intensity threshold was fixed to fit Thioflavin-S or GFAP signal.” left out

rats = settings: cited from earlier work
Aβ1-42 = settings: NL1 at 1 nM; cited from earlier work
Description: This higher accumulation of Aβ plaques promoted by the neurolide treatment prompted us to look for an explanation for this phenome ...

[4] = 5XFAD mice, 10 mg/kg s.c. three times a week for 10 weeks, neurolide n = 11 versus saline n = 13

Row | Molecule | Kd (Aβ40-1) | recognition index, short-term memory (2 h) (WT and 5XFAD mice [1]; 5XFAD mice, versus vehicle, p < 0.05) | recognition index, long-term memory (24 h) (WT and 5XFAD mice [1]; WT and 5XFAD mice, same tendency as at 2 h) | recognition index, short-term memory (2 h) (WT and 5XFAD mice [1]; WT mice, vehicle higher than neurolide, p < 0.01) | passage of the blood–brain-barrier [2] | plasma/CSF ratio ([2]; systemically given) | levels in CSF ([2]; within 30 min after single s.c. administration) | Y-maze number of arms entered (WT and 5XFAD mice [3]; p-value for treatment 0.9532) | Y-maze alternation rate (WT and 5XFAD mice [3]; test at week 11) | average size of thioflavin-S-positive plaques in the cortex (5XFAD and WT mice; [4]) | fractional area of thioflavin-S-positive plaques in the cortex (5XFAD and WT mice; [4]) | plaque area or plaque size in other brain regions (5XFAD and WT mice; 5XFAD mice, hippocampus, striatum, thalamus, hypothalamus, versus saline) | plaques in WT brains (5XFAD and WT mice; WT mice, 10 mg/kg s.c. three times a week for 10 weeks) | area of GFAP-immunoreactivity (gliosis) in the cortex (5XFAD mice) | spatial memory deficits induced by NMDAR-antagonist MK801 (rats) | spatial learning, social behavior, and locomotor activity (rats; healthy rats) | effect on Aβ aggregation at low concentration (Aβ1-42)
1 | I: SEGNRWSNSTKGLFQRAKK-NH2 / II: SEGNRWSNSTKGLFQRAK / III: SEGNRWSNSTKGLFQRA / IV: SEGNRWSNSTKGLFQRA (amide I:18-IV:C, I:19-II:C, II:18-III:C; C-terminus assumed) [neurolide] | 7.5 µM | significantly enhanced | no longer statistically significant | impairs memory | in the range of nanograms | approximately 20 | nanogram/low microgram levels | had no effect | had no effect | significant increase | significant increase | no significant difference | no plaques | significant increase | counteracted spatial memory deficits | had no effect | –
2 | B1 | – | – | – | – | – | – | – | – | – | – | – | – | – | – | – | – | accelerated the aggregation
